Data reported in patent publication US11926645B2, “Compounds and methods for treatment of viral infections” (priority 2020, dated 2024).
Where two headings read alike, the source gives them in different places.

Experiments:
SARS-CoV-2-Nluc viruses = assay: microbe, parasite or virus in culture; format: cell-based; conditions: Severe acute respiratory syndrome coronavirus 2; host cells A549-ACE2; read-out: EC50, WA1/2020-nano luciferase
in vitro [1] = format: cell-based; conditions: human; host cells A549-ACE2; read-out: CC50, A549-ACE2
Description: The cytotoxicity of compounds was determined in A549-hACE2 cells in the following manner. Compounds (200 nL) were spotted onto 384-well Grenier plates prior to seeding 5000 A549-hACE2 cells/well in a volume of 40 μL culture medium. The plates were incubated at 37° C. for 48 hours with 5% CO2. On day 2, 40 μL of CellTiter-Glo (Promega) was added and mixed 5 times.

[2] = tested on: RSV-Fluc (Respiratory Syncytial virus strain A2 containing the firefly luciferase reporter); assay: microbe, parasite or virus in culture; format: cell-based; conditions: human respiratory syncytial virus, 72 h, NHBE cells, three days
[3] = tested on: SARS-CoV-2 SA/2020 B.1.351; assay: microbe, parasite or virus in culture; format: cell-based; conditions: Severe acute respiratory syndrome coronavirus 2, Vero C1008
SARS-CoV-2 WA1/2020 A = assay: microbe, parasite or virus in culture; format: cell-based; conditions: Severe acute respiratory syndrome coronavirus 2, Vero C1008
SARS-CoV-2 BZ/2021 P.1 = assay: microbe, parasite or virus in culture; format: cell-based; conditions: Severe acute respiratory syndrome coronavirus 2, Vero C1008
SARS-CoV-2 CA/2020 = assay: microbe, parasite or virus in culture; format: cell-based; conditions: Severe acute respiratory syndrome coronavirus 2, Vero C1008
in vitro [4] = format: in vitro ADME, Human; conditions: human, s9, pH 7.4
Description: (§1) Duplicate aliquots of test compound or positive control substrate (GS-7340) were added to S9 stock diluted with 100 mM phosphate buffered saline, pH 7.4, to obtain a protein concentration of 1.0 mg/mL. The S9 metabolic reactions were initiated by the addition of the substrates to the S9 reaction mixture to a final concentration of 2 μM. At 0, 10, 20, 30, 60 and 120 min, 25 μL aliquots of the reaction mixture were transferred to plates containing 225 μl of IS/Q solution. After quenching, the plates were centrifuged at 3000×g for 30 minutes, and 150 μL aliquots of each supernatant were diluted with 150 μL water. Aliquots (10 μL) of the diluted supernatant were analyzed on a Thermo Q-Exactive mass spectrometer as described below.
(§2) Quantification of test compounds and controls was performed by analyte/internal standard peak area ratio (PAR) values measured on a Thermo Q-Exactive mass spectrometer coupled to a Dionex UltiMate 3000 HPLC with a Leap Technologies HTC PAL autosampler. The column used was a Thermo Hypersil GOLD (1.9 μm particle size, 2.1×50 mm). Mobile phase A consisted of 0.1% (v/v) formic acid in water. Mobile phase B consisted of 0.1% (v/v) formic acid in acetonitrile. Elution of analytes was achieved by a series of linear gradients of acetonitrile in water containing 0.1% (v/v) formic acid. The mass spectrometer was calibrated on a weekly basis and mass tolerance of 5 ppm was used.

in vitro [5] = format: in vitro ADME; conditions: s9, pH 7.4
Description: as §1, with “mM potassium” for “mM”, “phosphate buffer,” for “phosphate buffered saline,”, “of 2.4” for “of 1.0”, “At 2, 12, 25, 45, 65” for “At 0, 10, 20, 30, 60”, “and 90” for “and 120”, “150 μl,” for “150 μL”
as §2

[6] = male cynomolgus monkeys; oral Reference Compound A 5 mg/kg
[7] = male beagle dogs; oral Reference Compound A 5 mg/kg
[8] = female ferrets; oral Reference Compound A 20 mg/kg
[9] = male Balb/c mice; oral Reference Compound A 24 mg/kg
[10] = ferrets, single dose, Reference Compound A i.v. 20 mg/kg
in vivo [11] = conditions: male, cynomolgus monkey, po, 5 mg/kg
in vivo [12] = conditions: male, beagle, dog, po, 5 mg/kg
in vivo [13] = conditions: male, Sprague-Dawley, rat, po; for AUC(0-inf): Reference Compound A AUCinf.; for Cmax: Reference Compound A Cmax
in vivo [14] = conditions: female, po, 20 mg/kg
in vivo [15] = conditions: male, Balb/c, mouse, po, 24 mg/kg
in vitro [16] = conditions: African green monkey
in vitro [17] = conditions: human
in vitro [18] = conditions: hamster
in vitro [19] = conditions: human; remark: listed apart in the source
in vitro [20] = conditions: human, PrestoBlue
Plasma stability = conditions: human

In the case of `N#C[C@@]1(c2ccc3c(N)ncnn23)O[C@H](CO)[C@@H](O)[C@H]1O` [Reference Compound A, (2R,3R,4S,5R)-2-(4-aminopyrrolo[2,1-f][1,2,4]triazin-7-yl)-3,4-dihydroxy-5-(hydroxymethyl)tetrahydrofuran-2-carbonitrile], the EC50 (SARS-CoV-2-Nluc viruses) is reported as 1600 nM, the CC50 (in vitro [1]) is reported as over 50000 nM and the EC50 [2] is reported as 1970 nM. The EC50 [3] was 340 nM, the EC50 (SARS-CoV-2 WA1/2020 A) was 680 nM and the EC50 (SARS-CoV-2 BZ/2021 P.1) was 550 nM. The EC50 (SARS-CoV-2 CA/2020) was 210 nM, the half-life at 2 μM (in vitro [4]) was over 11.7 h and the half-life at 2 μM (in vitro [5]) was 9.87 h. The “Reference Compound A F % (based on compound A mg-eq dose)” value [6] was 3.4%, the “Reference Compound A F % (based on compound A mg-eq dose)” value [7] was 89% and the “Reference Compound A F % (based on Reference Compound A mg-eq dose)” value [8] was 87%. For the same molecule, the “Reference Compound A F % (based on compound A mg-eq dose)” value [9] was 33%, the “Reference Compound A AUClast” value [10] was 81.1 µM·h and the “Reference Compound A IV - CL” value [10] was 14.3 mL/min/kg. The “Reference Compound A t1/2” value [10] was 3.4 h, the Cmax ([10]; read-out: Reference Compound A Cmax) was 54.2 µM and the AUC(0-inf) (in vivo [11]) was 1.86 µM·h. For the same molecule, the Cmax (in vivo [11]) was 0.536 µM, the AUC(0-inf) (in vivo [12]) was 83.9 µM·h and the Cmax (in vivo [12]) was 27.3 µM. The AUC(0-inf) (in vivo [13]; 5 mg/kg) was 3.07 µM·h, the Cmax (in vivo [13]; 5 mg/kg) was 0.875 µM and the AUC(0-inf) (in vivo [13]; 10 mg/kg) was 2.36 µM·h. It also gave a Cmax (in vivo [13]; 10 mg/kg) of 0.578 µM, an AUC(0-inf) (in vivo [14]) of 70.9 µM·h and a Cmax (in vivo [14]) of 11.7 µM. The AUC(0-inf) (in vivo [15]) was 45.1 µM·h, the Cmax (in vivo [15]) was 13.7 µM and the CC50 (in vitro [16]) was over 100000 nM. It also gave a CC50 (in vitro [17]) of over 100000 nM, a CC50 (in vitro [18]) of over 100000 nM and a CC50 (in vitro [19]) of over 100000 nM. For the same molecule, the CC50 (in vitro [20]; CC50, F2 HAE, primary HAE donor F2, 72 hours) was over 100000 nM, the CC50 (in vitro [20]; CC50, F3 HAE, primary HAE donor F3, 72 hours) was over 100000 nM and the CC50 (in vitro [20]; CC50, M2 HAE, primary HAE donor M2, 72 hours) was over 100000 nM. The CC50 (in vitro [20]; CC50, M6 HAE, primary HAE donor M6, 72 hours) was over 100000 nM and the half-life at 2 μM (Plasma stability) was over 25 h.
